Calls of active or inactive are those of the source.
Assays:
[1] = Inhibition of bacterial Metallo-beta-lactamase IMP-1 using nitrocefin as substrate pre-incubated for 15 mins followed by substrate addition by microplate reader; parameters: species or system Bacteria
Escherichia coli [2] = experiment: Antibacterial activity against Escherichia coli KB366 expressing IMP-1 assessed as inhibition of bacterial growth at 100 ug in presence of meropenem incubated overnight by paper disk method; type: functional; details: read-out: IZ
Escherichia coli [3] = experiment: Antibacterial activity against Escherichia coli KB366 expressing IMP-1 assessed as inhibition of bacterial growth at 30 ug in presence of meropenem incubated overnight by paper disk method; type: functional; details: read-out: IZ
Escherichia coli [4] = experiment: Antibacterial activity against Escherichia coli KB366 expressing IMP-1 assessed as inhibition of bacterial growth at 10 ug in presence of meropenem incubated overnight by paper disk method; type: functional; details: read-out: IZ
Escherichia coli [5] = experiment: Antibacterial activity against Escherichia coli KB366 expressing IMP-1 assessed as inhibition of bacterial growth at 3 ug in presence of meropenem incubated overnight by paper disk method; type: functional; details: read-out: IZ
Escherichia coli [6] = experiment: Antibacterial activity against Escherichia coli KB366 expressing IMP-1 assessed as inhibition of bacterial growth at 1 ug in presence of meropenem incubated overnight by paper disk method; type: functional; details: read-out: IZ
Escherichia coli [7] = experiment: Antibacterial activity against Escherichia coli KB366 expressing IMP-1 assessed as inhibition of bacterial growth at 0.3 ug in presence of meropenem incubated overnight by paper disk method; type: functional; details: read-out: IZ
Escherichia coli [8] = experiment: Antibacterial activity against Escherichia coli KB366 expressing IMP-1 assessed as inhibition of bacterial growth at 0.1 ug in presence of meropenem incubated overnight by paper disk method; type: functional; details: dose 0.1 µg
Escherichia coli [9] = experiment: Antibacterial activity against Escherichia coli KB366 expressing IMP-1 assessed as inhibition of bacterial growth at 0.03 ug in presence of meropenem incubated overnight by paper disk method; type: functional; details: dose 0.03 µg
Escherichia coli [10] = experiment: Antibacterial activity against Escherichia coli KB366 expressing IMP-1 assessed as inhibition of bacterial growth at 0.01 ug in presence of meropenem incubated overnight by paper disk method; type: functional; details: dose 0.01 µg
Escherichia coli [11] = experiment: Antibacterial activity against Escherichia coli KB366 expressing IMP-1 assessed as inhibition of bacterial growth at 100 ug in absence of meropenem incubated overnight by paper disk method; type: functional, organism-based; details: dose 100.0 µg
Escherichia coli [12] = experiment: Antibacterial activity against Escherichia coli KB366 expressing IMP-1 assessed as inhibition of bacterial growth at 30 ug in absence of meropenem incubated overnight by paper disk method; type: functional, organism-based; details: dose 30.0 µg
Escherichia coli [13] = experiment: Antibacterial activity against Escherichia coli KB366 expressing IMP-1 assessed as inhibition of bacterial growth at 10 ug in absence of meropenem incubated overnight by paper disk method; type: functional, organism-based; details: dose 10.0 µg
Escherichia coli [14] = experiment: Antibacterial activity against Escherichia coli KB366 expressing IMP-1 assessed as inhibition of bacterial growth at 3 ug in absence of meropenem incubated overnight by paper disk method; type: functional, organism-based; details: dose 3.0 µg
Escherichia coli [15] = experiment: Antibacterial activity against Escherichia coli KB366 expressing IMP-1 assessed as inhibition of bacterial growth at 1 ug in absence of meropenem incubated overnight by paper disk method; type: functional, organism-based; details: dose 1.0 µg
Escherichia coli [16] = experiment: Antibacterial activity against Escherichia coli KB366 expressing IMP-1 assessed as inhibition of bacterial growth at 0.3 ug in absence of meropenem incubated overnight by paper disk method; type: functional, organism-based; details: dose 0.3 µg
Escherichia coli [17] = experiment: Antibacterial activity against Escherichia coli KB366 expressing IMP-1 assessed as inhibition of bacterial growth at 0.1 ug in absence of meropenem incubated overnight by paper disk method; type: functional, organism-based; details: dose 0.1 µg
Escherichia coli [18] = experiment: Antibacterial activity against Escherichia coli KB366 expressing IMP-1 assessed as inhibition of bacterial growth at 0.03 ug in absence of meropenem incubated overnight by paper disk method; type: functional, organism-based; details: dose 0.03 µg
Escherichia coli [19] = experiment: Antibacterial activity against Escherichia coli KB366 expressing IMP-1 assessed as inhibition of bacterial growth at 0.01 ug in absence of meropenem incubated overnight by paper disk method; type: functional, organism-based; details: dose 0.01 µg
Pseudomonas aeruginosa [20] = experiment: Antibacterial activity against Pseudomonas aeruginosa KB367 expressing IMP-1 assessed as inhibition of bacterial growth at 100 ug in presence of meropenem incubated overnight by paper disk method; type: functional
Pseudomonas aeruginosa [21] = experiment: Antibacterial activity against Pseudomonas aeruginosa KB367 expressing IMP-1 assessed as inhibition of bacterial growth at 30 ug in presence of meropenem incubated overnight by paper disk method; type: functional
Pseudomonas aeruginosa [22] = experiment: Antibacterial activity against Pseudomonas aeruginosa KB367 expressing IMP-1 assessed as inhibition of bacterial growth at 10 ug in presence of meropenem incubated overnight by paper disk method; type: functional
Pseudomonas aeruginosa [23] = experiment: Antibacterial activity against Pseudomonas aeruginosa KB367 expressing IMP-1 assessed as inhibition of bacterial growth at 3 ug in presence of meropenem incubated overnight by paper disk method; type: functional; details: dose 3.0 µg
Pseudomonas aeruginosa [24] = experiment: Antibacterial activity against Pseudomonas aeruginosa KB367 expressing IMP-1 assessed as inhibition of bacterial growth at 1 ug in presence of meropenem incubated overnight by paper disk method; type: functional; details: dose 1.0 µg
Pseudomonas aeruginosa [25] = experiment: Antibacterial activity against Pseudomonas aeruginosa KB367 expressing IMP-1 assessed as inhibition of bacterial growth at 0.3 ug in presence of meropenem incubated overnight by paper disk method; type: functional, organism-based; details: dose 0.3 µg
Pseudomonas aeruginosa [26] = experiment: Antibacterial activity against Pseudomonas aeruginosa KB367 expressing IMP-1 assessed as inhibition of bacterial growth at 0.1 ug in presence of meropenem incubated overnight by paper disk method; type: functional, organism-based; details: dose 0.1 µg
Pseudomonas aeruginosa [27] = experiment: Antibacterial activity against Pseudomonas aeruginosa KB367 expressing IMP-1 assessed as inhibition of bacterial growth at 100 ug in absence of meropenem incubated overnight by paper disk method; type: functional, organism-based; details: dose 100.0 µg
Pseudomonas aeruginosa [28] = experiment: Antibacterial activity against Pseudomonas aeruginosa KB367 expressing IMP-1 assessed as inhibition of bacterial growth at 30 ug in absence of meropenem incubated overnight by paper disk method; type: functional, organism-based; details: dose 30.0 µg
Pseudomonas aeruginosa [29] = experiment: Antibacterial activity against Pseudomonas aeruginosa KB367 expressing IMP-1 assessed as inhibition of bacterial growth at 10 ug in absence of meropenem incubated overnight by paper disk method; type: functional, organism-based; details: dose 10.0 µg
Pseudomonas aeruginosa [30] = experiment: Antibacterial activity against Pseudomonas aeruginosa KB367 expressing IMP-1 assessed as inhibition of bacterial growth at 3 ug in absence of meropenem incubated overnight by paper disk method; type: functional, organism-based; details: dose 3.0 µg
Pseudomonas aeruginosa [31] = experiment: Antibacterial activity against Pseudomonas aeruginosa KB367 expressing IMP-1 assessed as inhibition of bacterial growth at 1 ug in absence of meropenem incubated overnight by paper disk method; type: functional, organism-based; details: dose 1.0 µg
Pseudomonas aeruginosa [32] = experiment: Antibacterial activity against Pseudomonas aeruginosa KB367 expressing IMP-1 assessed as inhibition of bacterial growth at 0.3 ug in absence of meropenem incubated overnight by paper disk method; type: functional, organism-based; details: dose 0.3 µg
Pseudomonas aeruginosa [33] = experiment: Antibacterial activity against Pseudomonas aeruginosa KB367 expressing IMP-1 assessed as inhibition of bacterial growth at 0.1 ug in absence of meropenem incubated overnight by paper disk method; type: functional, organism-based; details: dose 0.1 µg

CC/C=C/C1=C(CCC(=O)O)C(=O)OC1=O
67.3 µg/mL: IC50 [1]

CC/C=C/C1=C(c2ccc(O)c(O)c2)C(=O)OC1=O
16 mm: zone of inhibition at 1 µg/disc (Escherichia coli [6])
23 mm: zone of inhibition at 10 µg/disc (Escherichia coli [4])
18 mm: zone of inhibition at 3 µg/disc (Escherichia coli [5]) | zone of inhibition at 100 µg/disc (Pseudomonas aeruginosa [20]; read-out: IZ)
inactive: inhibition zone (IZ) (Escherichia coli [8]) | inhibition zone (IZ) (Escherichia coli [9]) | inhibition zone (IZ) (Escherichia coli [10]) | inhibition zone (IZ) (Escherichia coli [11]) | inhibition zone (IZ) (Escherichia coli [12]) | inhibition zone (IZ) (Escherichia coli [13]) | inhibition zone (IZ) (Escherichia coli [14]) | inhibition zone (IZ) (Escherichia coli [15]) | inhibition zone (IZ) (Escherichia coli [16]) | inhibition zone (IZ) (Escherichia coli [17]) | inhibition zone (IZ) (Escherichia coli [18]) | inhibition zone (IZ) (Escherichia coli [19]) | inhibition zone (IZ) (Pseudomonas aeruginosa [23]) | inhibition zone (IZ) (Pseudomonas aeruginosa [24]) | inhibition zone (IZ) (Pseudomonas aeruginosa [25]) | inhibition zone (IZ) (Pseudomonas aeruginosa [26]) | inhibition zone (IZ) (Pseudomonas aeruginosa [27]) | inhibition zone (IZ) (Pseudomonas aeruginosa [28]) | inhibition zone (IZ) (Pseudomonas aeruginosa [29]) | inhibition zone (IZ) (Pseudomonas aeruginosa [30]) | inhibition zone (IZ) (Pseudomonas aeruginosa [31]) | inhibition zone (IZ) (Pseudomonas aeruginosa [32]) | inhibition zone (IZ) (Pseudomonas aeruginosa [33])
3.74 µg/mL: IC50 [1]
11 mm: zone of inhibition at 0.3 µg/disc (Escherichia coli [7])
14 mm: zone of inhibition at 30 µg/disc (Pseudomonas aeruginosa [21]; read-out: IZ)
27 mm: zone of inhibition at 30 µg/disc (Escherichia coli [3])
31 mm: zone of inhibition at 100 µg/disc (Escherichia coli [2])
9 mm: zone of inhibition at 10 µg/disc (Pseudomonas aeruginosa [22]; read-out: IZ)

CC/C=C/C1=C(CCCOS(C)(=O)=O)C(=O)OC1=O
> 10 µg/mL: IC50 [1]

CC/C=C/C1=C(c2ccc(OCOC)c(OCOC)c2)C(=O)OC1=O
inactive: inhibition zone (IZ) (Escherichia coli [11]) | inhibition zone (IZ) (Escherichia coli [12]) | inhibition zone (IZ) (Escherichia coli [13]) | inhibition zone (IZ) (Escherichia coli [14]) | inhibition zone (IZ) (Escherichia coli [15]) | inhibition zone (IZ) (Escherichia coli [16]) | inhibition zone (IZ) (Pseudomonas aeruginosa [20]; dose 100.0 µg) | inhibition zone (IZ) (Pseudomonas aeruginosa [21]; dose 30.0 µg) | inhibition zone (IZ) (Pseudomonas aeruginosa [22]; dose 10.0 µg) | inhibition zone (IZ) (Pseudomonas aeruginosa [23]) | inhibition zone (IZ) (Pseudomonas aeruginosa [24]) | inhibition zone (IZ) (Pseudomonas aeruginosa [25]) | inhibition zone (IZ) (Pseudomonas aeruginosa [26]) | inhibition zone (IZ) (Pseudomonas aeruginosa [27]) | inhibition zone (IZ) (Pseudomonas aeruginosa [28]) | inhibition zone (IZ) (Pseudomonas aeruginosa [29]) | inhibition zone (IZ) (Pseudomonas aeruginosa [30]) | inhibition zone (IZ) (Pseudomonas aeruginosa [31]) | inhibition zone (IZ) (Pseudomonas aeruginosa [32]) | inhibition zone (IZ) (Pseudomonas aeruginosa [33])
27 mm: zone of inhibition at 100 µg/disc (Escherichia coli [2])
23 mm: zone of inhibition at 30 µg/disc (Escherichia coli [3])
11 mm: zone of inhibition at 0.3 µg/disc (Escherichia coli [7])
9.49 µg/mL: IC50 [1]
16 mm: zone of inhibition at 3 µg/disc (Escherichia coli [5])
20 mm: zone of inhibition at 10 µg/disc (Escherichia coli [4])
14 mm: zone of inhibition at 1 µg/disc (Escherichia coli [6])
